Data as given in patent publication US4866052A, “Treatment of sickle cell disease” (National Research Development Corporation, priority 1986, dated 1989).
Values belong to the compound of their own block, whether it stands above or below them.

Key:
[1] = molecular target: T1, haemoglobin (Homo sapiens, UniProt P68871+P69905); assay: Uptake of 65Zn from 2:1 zinc(II) complexes by haemoglobin in human erythrocytes; format: cell-based; conditions: 2:1 zinc complex 5 x 10^-4M with excess ligand, 1 hour, 37° C., pH 7.4, human erythrocytes
T1 construct: A 5% suspension of human erythrocytes in aqueous sodium chloride; endogenous in cells; host or cells: human erythrocytes (intact, 5% suspension)
T1 sequence (P69905 2-142 limits assumed): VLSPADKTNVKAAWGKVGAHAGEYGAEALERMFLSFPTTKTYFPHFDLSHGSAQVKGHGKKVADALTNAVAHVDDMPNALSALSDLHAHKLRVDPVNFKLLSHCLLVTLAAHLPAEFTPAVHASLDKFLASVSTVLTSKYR
T1 sequence (P68871 2-147 limits assumed): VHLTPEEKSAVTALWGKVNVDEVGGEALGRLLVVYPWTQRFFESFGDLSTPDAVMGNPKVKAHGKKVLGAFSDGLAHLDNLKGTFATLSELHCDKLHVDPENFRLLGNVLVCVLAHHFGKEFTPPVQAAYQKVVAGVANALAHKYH
Method: (§1) Uptake of zinc from complexes by haemoglobin (1) A 5% suspension of human erythrocytes in aqueous sodium chloride (b 130 mM) buffered to pH 7.4 by 20 mM Tris hydrochloride (2 ml) was incubated for 1 hour at 37° C. with the 2:1 zinc(II) complex in the presence of an excess of the ligand-forming compound. The complex was formed in situ in the buffer using ^65 Zn labelled ZnSO4 at a concentration selected over a range from 1×10^-6 to 4×10^-3 M compound at ten times this concentration and a small amount of Tris free base (to about 2 mM) added to the medium to avoid an acid pH on reaction of the ZnSO4 and the compound to form the complex. Following the period of incubation, an aliquot of the erythrocyte/medium mixture was placed above a layer of silicone oil and the erythrocytes separated by […] centrifugation through the oil. The ^65 Zn levels associated with the erythrocytes and the incubation medium were then counted and the distribution ratio (concentration in erythrocytes/concentration in medium) calculated. The average distribution ratios of zinc obtained in a series of experiments for the homogeneous 2:1 complex from the ligand-providing compounds 3-hydroxy-2methyl-4-pyrone, 2-ethyl-3-hydroxy-4-pyrone and 3-hydroxy-2-(1'-methylethyl)-4-pyrone at a concentration of 5 x 10^-4M are shown in Table 1 together with the percentage of the total amount of zinc which is absorbed in the erythrocytes.

[2] = test system: Normal erythrocytes; assay: Oxygen dissociation curve / oxygen affinity, normal erythrocytes; format: cell-based, human
Method: (§2) (1) A 50% suspension of human erythrocytes in pH 7.09 8BisTris/NaCl buffer005M BisTris(bis(2-hydroxyethyl)imino-tris(hydroxymethyl)methane and 0.13M NaCl was incubated for 15 minutes at 37° C. with the 2:1 zinc(II) complex of 2-ethyl-3-hydroxy-4-pyrone in the presence of an excess of the ligand-forming compound, the complex being formed in situ using zinc sulphate and a 10 molar excess of 2-ethyl-3-hydroxy-4-pyrone (to provide the 2:1 complex and an 8 molar excess of the pyrone). The oxygen dissociation curve of the erythrocytes was then determined using the method of Bellingham and Huehns (Nature, -968, 218, 924-926) which involves measuring the change of OD at two wavelengths (570 and 555 nm) after the sequential measured addition of oxygen in a tanometer. The experiment was conducted using normal erythrocytes, 2,3-diphosphoglyceric acid (DPG) depleted erythrocytes, foetal erythocytes and sickle erythrocytes. A 2.5 mM concentration of zinc was employed in each case together with a proportion of erythrocytes such as to provide a 2:1 ratio of zinc:haemoglobin and consequent saturation of the haemoglobin by zinc, except in one experiment where the proportion was varied to provide a ratio varying from 0.5:1 to 2:1. In each case a control was carried out in the absence of any zinc sulphate or 2-ethyl-3-hydroxy-4-pyrone and in one case two additional controls were carried out in the presence of one of these compounds used alone. The values for p(O2)50 (i.e. the oxygen pressure at which 50% of the haemoglobin is in the oxygenated form) obtained in each case are shown in Table 2 (together with the inferred Zn:Hb ratio) from which it will be seen that the oxygen affinity of normal erythrocytes, and also of sickle erythrocytes, is increased through treatment of the cells with zinc(II) (2-ethyl-3-hydroxy-4-pyrone)2. Foetal erythrocytes, which contain Hb-F and therefore show different characteristics from normal eythrocytes which contain Hb-A, were as expected not affected. […] With sickle erythrocytes the effect is even more marked as is further illustrated in (2) below.
(§3) (2) The effect of the 2:1 2-ethyl-3-hydroxy-4-pyrone:zinc(II) complex on normal and sickle erythrocytes was further compared using a basically similar procedure to that described in (-) above. Concentrations of 2.5 mM ZnSO4 and 25 mM pyrone, and a 2:1 Zn:Hb ratio were again used but the incubation period was extended to 1 hour. In each case a control experiment was carried out in the absence of any zinc sulphate or pyrone.
(3) The effect of different concentrations of the 2:1 2-ethyl-3-hydroxy-4-pyrone:zinc(II) complex upon normal erythrocytes was studied using a basically similar procedure to that described in (l) above but with ZnSO4 concentrations of 0.1, 1 and 10 mM (and ten times these concentrations of the pyrone) and extending the incubation period to 1 hour. A control experiment was carried out in the absence of any zinc sulphate or pyrone.

[3] = test system: DPG depleted erythrocytes; assay: Oxygen dissociation curve / oxygen affinity, DPG depleted erythrocytes; format: cell-based, human; conditions: 2.5 mM ZnSO4 + 25 mM pyrone, Zn:Hb 2:1; control 15.75
Method: (§4) (1) A 50% suspension of human erythrocytes in pH 7.09 8BisTris/NaCl buffer005M BisTris(bis(2-hydroxyethyl)imino-tris(hydroxymethyl)methane and 0.13M NaCl was incubated for 15 minutes at 37° C. with the 2:1 zinc(II) complex of 2-ethyl-3-hydroxy-4-pyrone in the presence of an excess of the ligand-forming compound, the complex being formed in situ using zinc sulphate and a 10 molar excess of 2-ethyl-3-hydroxy-4-pyrone (to provide the 2:1 complex and an 8 molar excess of the pyrone). The oxygen dissociation curve of the erythrocytes was then determined using the method of Bellingham and Huehns (Nature, -968, 218, 924-926) which involves measuring the change of OD at two wavelengths (570 and 555 nm) after the sequential measured addition of oxygen in a tanometer. The experiment was conducted using normal erythrocytes, 2,3-diphosphoglyceric acid (DPG) depleted erythrocytes, foetal erythocytes and sickle erythrocytes. A 2.5 mM concentration of zinc was employed in each case together with a proportion of erythrocytes such as to provide a 2:1 ratio of zinc:haemoglobin and consequent saturation of the haemoglobin by zinc, except in one experiment where the proportion was varied to provide a ratio varying from 0.5:1 to 2:1. […]

[4] = test system: erythrocyte ghosts; assay: Uptake of 65Zn by erythrocyte ghosts lacking haemoglobin; format: cell-based, human; conditions: 2.5 mM 65ZnSO4 and 25 mM 2-ethyl-3-hydroxy-4-pyrone
Method: as §1, with “The average distribution ratios of zinc obtained in a series of experiments for the homogeneous 2:1 complex from the ligand-providing compounds 3-hydroxy-2methyl-4-pyrone, 2-ethyl-3-hydroxy-4-pyrone and 3-hydroxy-2-(1'-methylethyl)-4-pyrone at a concentration of 5 x 10^-4M are shown in Table 1 together with the percentage of the total amount of zinc which is absorbed in the erythrocytes.” left out

[5] = test system: Sickle erythrocytes; assay: Oxygen dissociation curve / oxygen affinity, sickle erythrocytes; format: cell-based, human
Method: as §2, §3

[6] = test system: Foetal erythrocytes; assay: Oxygen dissociation curve / oxygen affinity, foetal erythrocytes; format: cell-based, human
Method: as §4

[7] = test system: haemoglobin; assay: Donation of zinc to haemoglobin, elution profile of 65Zn label on PD-10 column; format: binding
Method: There was no evidence of any saturation of the rate of uptake over the concentration range studied so that the complex is not actively transported and, in order to account for the high distribution ratios observed, the zinc must therefore dissociate from the complex and bind to a macromolecule or membrane associated with the erythrocyte. The experiment just described was repeated at a concentration of 2.5 mM ^65 ZnSO4 and 25 mM 2-ethyl-3-hydroxy-4-pyrone using erythrocyte ghosts in which the haemoglobin is lacking rather than whole erythrocytes. […] (2) The ability of the zinc(II) complex of 2-ethyl-3-hydroxy-4-pyrone to donate zinc to haemoglobin was investigated by [j studying the elution profile of the ^65 Zn label when a mixture of haemoglobin and the ^65 Zn-labelled complex (at 1 mM concentration)in NaCI (130 mM) buffered to pH 7.4 by Tris hydrochloride is applied to a PD-10 colum (Sephadex […] gel permeation column - Pharmacia).

- Distribution ratio (concentration in erythrocytes/concentration in medium) [1]: 8
- Percentage of zinc absorbed [1]: 54%
SMILES: Cc1occc(=O)c1[O-].Cc1occc(=O)c1[O-].[Zn+2] [zinc(II) (3-hydroxy-2-methyl--pyrone)2]

SMILES: O=S(=O)([O-])[O-].[Zn+2] [ZnSO4, zinc sulphate, reference compound]
- P(O2)50 ([2]; 2.5 mM ZnSO4 alone, Zn:Hb 2:1, control 26): 24.5 mmHg

- Distribution ratio (concentration in erythrocytes/concentration in medium) [1]: 550
- Percentage of zinc absorbed [1]: 98%
SMILES: CC(C)c1occc(=O)c1[O-].CC(C)c1occc(=O)c1[O-].[Zn+2] [zinc(II) (3-hydroxy-2-(2'-methylethyl)-4-pyrone)2]

- Distribution ratio (concentration in erythrocytes/concentration in medium) [1]: 300
- Percentage of zinc absorbed [1]: 96%
SMILES: CCc1occc(=O)c1[O-].CCc1occc(=O)c1[O-].[Zn+2] [zinc(II) (2-ethyl-3-hydroxy-4-pyrone)2]
- P(O2)50 [3]: 9.25 mmHg
- uptake of zinc by erythrocyte ghosts (in words) [4]: Only a low level of uptake of zinc was observed
- P(O2)50 ([5]; 2.5 mM ZnSO4 + 25 mM pyrone, Zn:Hb 2:1, control 36): 18.5 mmHg
- shift in the oxygen dissociation curve (in words) ([5]; 2.5 mM ZnSO4, 25 mM pyrone, 1 hour, FIG. 1b): a significant left shift in the oxygen dissociation curve is produced in both cases but that the difference from the control is more marked for the sickle erythrocytes
- p(O2)50, treated cells ([5]; 2.5 mM ZnSO4 and 25 mM pyrone, Zn:Hb 2:1, 1 hour (FIG. 1b), control 36.0): 18.5 mm Hg
- p(O2)50 shift ([5]; 2.5 mM ZnSO4 and 25 mM pyrone, Zn:Hb 2:1, 1 hour, versus control, sickle erythrocytes): 17.5 mm Hg
- oxygen affinity (in words) ([5]; sickle erythrocytes, 2.5 mM zinc, 15 minutes): increased
- P(O2)50 ([6]; 2.5 mM ZnSO4 + 25 mM pyrone, Zn:Hb 0:1 (assumed no uptake by HbF), control 22): 24 mmHg
- oxygen affinity (in words) ([6]; foetal erythrocytes, 2.5 mM zinc, 15 minutes): not affected
- P(O2)50 ([2]; 2.5 mM ZnSO4 + 25 mM pyrone, Zn:Hb 0.5:1, control 30.0): 23.5 mmHg
- P(O2)50 ([2]; 2.5 mM ZnSO4 + 25 mM pyrone, Zn:Hb 1:1, control 30.0): 17.0 mmHg
- P(O2)50 ([2]; 2.5 mM ZnSO4 + 25 mM pyrone, Zn:Hb 1.5:1, control 30.0): 15.0 mmHg
- P(O2)50 ([2]; 2.5 mM ZnSO4 + 25 mM pyrone, Zn:Hb 2:1, control 26): 15.5 mmHg
- P(O2)50 ([2]; 2.5 mM ZnSO4 + 25 mM pyrone, Zn:Hb 2:1, control 27.5): 15 mmHg
- P(O2)50 ([2]; 2.5 mM ZnSO4 + 25 mM pyrone, Zn:Hb 2:1, control 30.0): 15.0 mmHg
- shift in the oxygen dissociation curve (in words) ([2]; 2.5 mM ZnSO4, 25 mM pyrone, 1 hour, FIG. 1a): a significant left shift in the oxygen dissociation curve
- p(O2)50, treated cells ([2]; 2.5 mM ZnSO4 and 25 mM pyrone, Zn:Hb 2:1, 1 hour (FIG. 1a), control 27.5): 15.0 mm Hg
- p(O2)50 shift ([2]; 2.5 mM ZnSO4 and 25 mM pyrone, Zn:Hb 2:1, 1 hour, versus control, normal erythrocytes): 12.5 mm Hg
- dose response of shift in the oxygen dissociation curve (in words) ([2]; ZnSO4 0.1, 1 and 10 mM with ten times pyrone, 1 hour, FIG. 2): dose response effect
- shift in the oxygen dissociation curve (in words) ([2]; complex 0.1 mM, 1 hour, FIG. 2): still a discernible left shift in the oxygen dissociation curve
- oxygen affinity (in words) ([2]; normal erythrocytes, 2.5 mM zinc, 15 minutes): increased
- binding of zinc to haemoglobin (in words) ([7]; 1 mM complex, 20-fold molar proportion of ligand:zinc, NaCl 130 mM, pH 7.4): the zinc is found to bind tightly to haemoglobin
- binding of zinc to haemoglobin versus ligand (in words) ([7]; haemoglobin versus 2-ethyl-3-hydroxy-4-pyrone): zinc binds more tightly to haemoglobin than to 2-ethyl-3-hydroxy-4-pyrone

SMILES: CCc1occc(=O)c1O [pyrone, 2-ethyl-3-hydroxy-4-pyrone, reference compound]
- P(O2)50 ([2]; 2.5 mM pyrone alone, Zn:Hb 0:1, control 26): 28 mmHg
